Results from article PMC9927457 (Microbiology Spectrum, 2023).
In brackets after ≈: the same amount, converted by molar mass.

What was measured:
[1] = Microsomal metabolic stability; conditions: human, pH 7.4; for half-life at 1 µM: liver microsomes; for microsomal CLint at 1 µM: microsomes
Experimental: (§1) Permeability was measured across Caco-2 cells cultured in a Millipore 96-well Caco-2 plate. For apical to basolateral (A→B) permeability, 10 μM compound was added to the apical (A) side and amount of permeation was determined on the basolateral (B) side; for basolateral to apical (B→A) permeability, the compound was added to the B side and the amount of permeation was determine on the A side. Time points were taken at 2 h.
Table S3. Metabolic stability. Metabolic stability was measured using human liver microsomes. […]

[2] = biological target: CYP3A4 (Homo sapiens, UniProt P08684); test: Cytochrome P450 inhibition; format: in vitro ADME; conditions: liver microsomes
CYP3A4, sequence (P08684 2-503): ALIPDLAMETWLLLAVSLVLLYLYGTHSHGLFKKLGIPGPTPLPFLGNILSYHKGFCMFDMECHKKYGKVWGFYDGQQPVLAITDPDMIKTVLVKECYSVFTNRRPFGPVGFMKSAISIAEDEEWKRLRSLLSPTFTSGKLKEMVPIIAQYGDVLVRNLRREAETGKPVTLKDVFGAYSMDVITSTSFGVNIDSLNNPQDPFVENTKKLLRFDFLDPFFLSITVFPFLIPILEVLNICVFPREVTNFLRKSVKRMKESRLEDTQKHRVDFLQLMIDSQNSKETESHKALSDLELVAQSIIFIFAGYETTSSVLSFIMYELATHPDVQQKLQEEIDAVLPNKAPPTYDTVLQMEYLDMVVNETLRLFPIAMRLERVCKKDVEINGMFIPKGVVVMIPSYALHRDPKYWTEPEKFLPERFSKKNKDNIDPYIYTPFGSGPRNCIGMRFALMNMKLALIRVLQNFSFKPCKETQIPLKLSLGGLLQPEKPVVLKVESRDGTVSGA
Experimental: (§2) Table S4. Inhibition of cytochrome P450s.
(§3) Compounds were tested for inhibition of P450s using the enzyme substrate pairs and conditions noted. IC50s (µM) were calculated. Control P450 inhibitors were included for each isoform.
(§4) For each compound, the analytical method was developed as follows. Analyte signal was optimized for each compound by ESI positive or negative ionization mode. An MS2 scan or an SIM scan was used to optimize fragmenter voltage and a product ion analysis was used to identify the best fragment for analysis. The collision energy was optimized using a product ion or MRM scan. An ionization ranking was assigned indicating the compound’s ease of ionization. Samples […]
(§5) 1200 HPLC and a CTC PAL chilled autosampler, all controlled by MassHunter software (Agilent).
(§6) After separation on a C18 reverse phase HPLC column (Agilent Zorbax StableBond 3.5µm, 2.1 x 30 mm) using an acetonitrile -water gradient system, peaks were analyzed by mass spectrometry (MS) using ESI ionization in MRM mode.
(§7) (1 picture or pasted object on this page, not shown here)
(§8) Serial dilutions of a 10 mM stock solution were prepared in acetonitrile:DMSO (9:1). The final DMSO concentration was < 0.2%. Compounds were incubated with human liver microsomes in the presence of 2 mM NADPH in 100 mM potassium phosphate (pH 7.4) containing 5 mM magnesium chloride and a probe substrate, in a 200 µl assay final volume in duplicate. The probe substrate concentrations including bupropion (CYP2B6), amodiaquine (CYP2C8), tolbutamide (CYP2C9), mephenytoin (CYP2C19), dextromethorphan (CYP2D6) and midazolam/testosterone […]
(§9) After incubation at 37 °C, reactions were terminated by addition of methanol containing internal standard (propranolol) for analytical quantification. The quenched samples were kept on ice for 10 min and centrifuged at 4 °C for 10 min. The supernatant was removed and the probe substrate metabolite was analyzed by LC-MS/MS (Agilent Technologies Triple Quad LC/MS). A decrease in the formation of the metabolite compared to vehicle control

[3] = biological target: CYP2C19 (Homo sapiens, UniProt P33261); test: biochemical
CYP2C19, sequence (P33261 whole entry): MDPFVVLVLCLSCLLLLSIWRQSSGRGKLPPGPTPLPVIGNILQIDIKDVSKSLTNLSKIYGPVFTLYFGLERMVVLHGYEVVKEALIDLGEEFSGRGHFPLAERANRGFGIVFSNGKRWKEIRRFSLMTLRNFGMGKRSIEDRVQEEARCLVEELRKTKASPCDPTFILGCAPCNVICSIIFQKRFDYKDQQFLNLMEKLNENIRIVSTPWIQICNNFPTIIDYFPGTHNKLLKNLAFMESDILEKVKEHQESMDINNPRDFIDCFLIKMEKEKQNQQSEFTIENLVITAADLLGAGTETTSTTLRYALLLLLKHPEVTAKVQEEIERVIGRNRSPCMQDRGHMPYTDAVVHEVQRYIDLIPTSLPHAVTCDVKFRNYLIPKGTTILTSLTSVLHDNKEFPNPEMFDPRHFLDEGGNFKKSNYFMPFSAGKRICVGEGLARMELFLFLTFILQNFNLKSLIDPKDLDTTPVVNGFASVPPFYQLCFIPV
Experimental: as §2, §3, §4, §5, §6, §7, §8, §9

[4] = biological target: T1, CYP2C8 (Homo sapiens, UniProt P10632); test: biochemical
T1 sequence (P10632 1-490): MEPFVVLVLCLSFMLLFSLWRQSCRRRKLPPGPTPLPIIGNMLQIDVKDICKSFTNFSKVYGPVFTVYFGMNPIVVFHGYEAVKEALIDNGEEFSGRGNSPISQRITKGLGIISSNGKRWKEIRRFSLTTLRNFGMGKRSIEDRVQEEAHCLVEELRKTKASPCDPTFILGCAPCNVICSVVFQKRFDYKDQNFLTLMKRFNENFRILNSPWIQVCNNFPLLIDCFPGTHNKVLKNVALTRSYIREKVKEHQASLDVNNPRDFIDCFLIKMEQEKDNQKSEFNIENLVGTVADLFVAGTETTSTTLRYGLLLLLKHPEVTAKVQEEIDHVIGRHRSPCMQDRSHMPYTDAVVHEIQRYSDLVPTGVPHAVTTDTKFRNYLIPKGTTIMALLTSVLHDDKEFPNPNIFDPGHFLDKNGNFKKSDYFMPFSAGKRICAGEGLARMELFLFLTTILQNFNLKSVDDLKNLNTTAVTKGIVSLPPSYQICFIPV
Experimental: as §2, §3, §4, §5, §6, §7, §8, §9

[5] = tested on: HepG2 cells; test: HepG2 cytotoxicity; format: cell-based, human; conditions: 3 days exposure, CellTiter-Glo
Experimental: HepG2 cells were used to measure eukaryotic cytotoxicity. Viability of HepG2 was measured using CellTiter-Glo reagent (Promega) after 3 days of exposure to compounds. […] Staurosporine controls (maximum inhibition) and a staurosporine dose response were included on every plate.

[6] = tested on: M. tuberculosis wild-type strain; test: MIC against wild-type M. tuberculosis; format: cell-based, Mycobacterium tuberculosis; conditions: concentration required to inhibit growth by 90%, 5 days culture; for MIC: Mycobacterium tuberculosis, 120 h, read-out: MIC Wild type
[7] = Plasma protein binding (Rapid Equilibrium Dialysis); format: in vitro ADME, human; conditions: human; for fraction unbound at 4 h, 5 µM: plasma
Experimental: Molecule fraction fraction Post-Assay
Table S5. Plasma protein binding
Protein binding was measured in human plasma using Rapid Equilibrium Dialysis (RED) devices (Pierce) according to the manufacturers’ instructions; 5 µM compounds in plasma were dialysed against PBS for 4 h at 37C. Compounds were detected by LC-MS/MS in plasma and PBS

[8] = biological target: T2, CYP2B6 (Homo sapiens, UniProt P20813); test: Cytochrome P450 inhibition
T2 sequence (P20813 1-491): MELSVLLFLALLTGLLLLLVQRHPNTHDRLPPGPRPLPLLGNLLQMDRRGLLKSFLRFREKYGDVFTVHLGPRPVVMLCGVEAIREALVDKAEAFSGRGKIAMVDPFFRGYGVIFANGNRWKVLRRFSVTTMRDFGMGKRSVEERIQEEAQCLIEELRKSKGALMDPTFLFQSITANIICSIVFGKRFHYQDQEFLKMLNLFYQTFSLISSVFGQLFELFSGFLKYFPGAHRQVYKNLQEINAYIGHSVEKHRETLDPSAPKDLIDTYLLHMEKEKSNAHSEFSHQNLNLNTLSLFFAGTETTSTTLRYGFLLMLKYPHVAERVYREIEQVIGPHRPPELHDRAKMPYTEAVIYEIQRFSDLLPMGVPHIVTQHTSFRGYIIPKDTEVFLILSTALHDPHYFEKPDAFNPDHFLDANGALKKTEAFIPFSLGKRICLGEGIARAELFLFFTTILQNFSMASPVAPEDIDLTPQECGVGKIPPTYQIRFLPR
Experimental: as §2, §3, §4, §5, §6, §7, §8, §9

[9] = biological target: CYP2C9 (Homo sapiens, UniProt P11712); test: biochemical
CYP2C9, sequence (P11712 whole entry): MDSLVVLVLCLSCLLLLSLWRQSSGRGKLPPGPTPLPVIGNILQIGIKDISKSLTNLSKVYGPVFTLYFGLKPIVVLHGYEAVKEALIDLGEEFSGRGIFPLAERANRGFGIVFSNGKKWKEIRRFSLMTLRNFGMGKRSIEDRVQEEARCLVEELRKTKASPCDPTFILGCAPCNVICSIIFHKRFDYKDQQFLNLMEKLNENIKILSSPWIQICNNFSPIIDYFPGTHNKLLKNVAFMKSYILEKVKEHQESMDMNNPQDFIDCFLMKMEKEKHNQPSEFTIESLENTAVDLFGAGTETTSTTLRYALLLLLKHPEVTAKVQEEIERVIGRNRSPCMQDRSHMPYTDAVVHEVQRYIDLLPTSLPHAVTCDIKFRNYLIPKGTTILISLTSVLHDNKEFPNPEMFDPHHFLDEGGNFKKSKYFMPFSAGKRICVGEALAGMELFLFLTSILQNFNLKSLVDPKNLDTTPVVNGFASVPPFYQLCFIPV
Experimental: as §2
(§10) Compounds were tested for inhibition of P450s using the enzyme substrate pairs and conditions noted. IC50s (µM) were calculated. Control P450 inhibitors were included for each isoform. […]
as §8, §9

[10] = tested on: M. tuberculosis strain under expressing LepB (LepB-UE); test: microbe, parasite or virus in culture; format: cell-based, Mycobacterium tuberculosis; conditions: for MIC: Mycobacterium tuberculosis, 120 h
[11] = tested on: Caco-2 cells; test: Caco-2 permeability; conditions: for recovery: human, 10 μM
Experimental: as §1
(§11) Table S2. Permeability. Permeability was measured using Caco-2 cells after 1 and 2 hours incubation with compound. (A→B) is Apical to Basolateral; (B→A) is Basolateral to Apical. Data is expressed as permeability (10-6 cm s-1). dQ/dt is rate of permeation, C0 is initial concentration […]
(§12) Article Duration direction value replicate replicate mean recovery

[12] = in vitro; conditions: human; for Papp A→B at 2 h, 10 µM / Papp B→A at 2 h, 10 µM / efflux ratio at 2 h, 10 µM: Caco-2
Experimental: as §1, §11, §12

[13] = biological target: CYP2D6 (Homo sapiens, UniProt P10635); test: biochemical
CYP2D6, sequence (P10635 whole entry): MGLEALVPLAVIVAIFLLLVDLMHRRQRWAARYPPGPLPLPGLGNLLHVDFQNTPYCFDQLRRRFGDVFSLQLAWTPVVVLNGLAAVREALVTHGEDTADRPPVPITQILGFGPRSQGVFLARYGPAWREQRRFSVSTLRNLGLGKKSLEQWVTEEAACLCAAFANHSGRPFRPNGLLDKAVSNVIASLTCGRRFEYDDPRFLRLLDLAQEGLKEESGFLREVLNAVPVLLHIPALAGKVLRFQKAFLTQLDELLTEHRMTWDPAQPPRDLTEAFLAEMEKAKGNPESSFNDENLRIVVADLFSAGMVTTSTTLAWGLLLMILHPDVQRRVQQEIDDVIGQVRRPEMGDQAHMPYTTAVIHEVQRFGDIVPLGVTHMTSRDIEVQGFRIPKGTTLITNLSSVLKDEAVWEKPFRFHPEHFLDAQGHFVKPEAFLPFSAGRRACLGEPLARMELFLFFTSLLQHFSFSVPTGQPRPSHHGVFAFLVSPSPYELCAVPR
Experimental: as §2, §10, §5, §6, §8, §9

[14] = tested on: nonreplicating M. tuberculosis; test: Kill kinetics, nonreplicating (nutrient starved) bacteria; format: cell-based, Mycobacterium tuberculosis; conditions: nutrient starvation, PBS-tyloxapol
[15] = tested on: replicating M. tuberculosis; test: Kill kinetics, replicating bacteria; conditions: aerobic growth
[16] = tested on: RAW 264.7 macrophages; test: Cytotoxicity against infected macrophages; format: cell-based, murine; conditions: Mus musculus; infected RAW264:7 cells, 72 h; read-out: IC50 Macrophage
Experimental: (§13) Murine RAW 264.7 macrophages (ATCC TIB-71) were infected with M. tuberculosis DsRed (DREAM8) ([29]) as described at a multiplicity of infection of 1 for 24 h, washed, harvested, and dispensed into 384-well plates ([30]). Infected macrophages were exposed to compounds for 72 h; cell nuclei were stained with SYBR green I. Plates were imaged with an ImageXpress Micro High Content Screening System (Molecular Devices) using a ×4 objective and FITC and Texas Red channels. MetaXpress was used to determine the integrated intensity of bacteria or macrophages. […] Isoniazid and staurosporine controls (maximum inhibition) and dose responses were included on every plate.

[17] = biological target: SPase activity in M. tuberculosis H37Rv cell membrane fractions (Mycobacterium tuberculosis, UniProt P9WKA1); test: Inhibition of secretion (SPase activity) in membrane fractions; format: biochemical; conditions: fluorogenic peptide substrate 2 μM; 4 h, 37 °C
SPase activity in M. tuberculosis H37Rv cell membrane fractions, sequence (P9WKA1 whole entry): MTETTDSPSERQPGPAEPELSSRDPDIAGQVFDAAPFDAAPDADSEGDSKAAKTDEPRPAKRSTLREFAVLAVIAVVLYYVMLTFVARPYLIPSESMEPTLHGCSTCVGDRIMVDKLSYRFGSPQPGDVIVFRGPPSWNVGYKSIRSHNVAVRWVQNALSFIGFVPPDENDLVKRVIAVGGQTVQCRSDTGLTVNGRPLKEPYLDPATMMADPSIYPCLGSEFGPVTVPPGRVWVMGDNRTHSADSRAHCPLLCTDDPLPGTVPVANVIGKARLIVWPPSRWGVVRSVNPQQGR

[18] = tested on: intracellular M. tuberculosis (MTB) in RAW 264.7 macrophages; test: Activity against intracellular M. tuberculosis in macrophages (high-content microscopy); format: cell-based; conditions: Mycobacterium tuberculosis, RAW264.7, 72 h, intracellular M. tuberculosis in RAW 264.7 macrophages
Experimental: as §13

[19] = Mean plasma fraction Unbound Fuplasma

| SMILES | half-life at 1 µM [1] [min] | microsomal CLint at 1 µM [1] [µL/min/mg] | IC50 at 10 min ([2]; pH 7.4, probe midazolam) [µM] | IC50 at 10 min ([2]; pH 7.4, probe testosterone) [µM] | IC50 [3] [µM] | IC50 [4] [µM] | IC50 ([5]; Homo sapiens, HepG2, 72 h) [µM] | MIC [6] [µM] | recovery at 4 h, 5 µM [7] [%] | fraction unbound at 4 h, 5 µM ([7]; Mean plasma fraction Bound) | fraction unbound at 4 h, 5 µM [7, 19] | IC50 [8] [µM] | IC50 [9] [µM] | MIC [10] [µM] | dQ/dt (rate of permeation), mean ([11]; A→B, assay duration 1 hr) | dQ/dt (rate of permeation), mean ([11]; A→B, assay duration 2 hr) | dQ/dt (rate of permeation), mean ([11]; B→A, assay duration 1 hr) | dQ/dt (rate of permeation), mean ([11]; B→A, assay duration 2 hr) | Papp A→B at 2 h, 10 µM [12] [×10⁻⁶ cm/s] | MIC LepB-UE [10] [µM] | also measured |
| --- | --- | --- | --- | --- | --- | --- | --- | --- | --- | --- | --- | --- | --- | --- | --- | --- | --- | --- | --- | --- | --- |
| COCCCNC(=S)Nc1nc2ccccc2s1 [Molecule 24, 1-(benzo[d]thiazol-2-yl)-3-(3-methoxypropyl)thiourea] | 8.2 | 282 | > 20 | > 20 | > 20 | > 20 | 65 ± 60 | 65 ± 21 (≈ 18.3 µg/mL) | 76.5 | 0.055 | 0.055 | > 20 | > 20 | 58 ± 1 (≈ 16.3 µg/mL) | 1.1E-04 | 8.8E-05 | 8.0E-05 | 1.1E-04 | 17 | – | Papp B→A at 2 h, 10 µM [12]: 15 ×10⁻⁶ cm/s; efflux ratio at 2 h, 10 µM [12]: 0.87; recovery at 2 h, 10 μM ([12]; Caco-2, recovery): 54%; IC50 [13]: > 20 µM |
| Cc1coc(NC(=S)NCC(C)C)n1 [Molecule 29, 1-isobutyl-3-(4-methyloxazol-2-yl)thiourea] | – | – | – | – | – | – | 27 to 78 | 20 to 40 (≈ 4.27 to 8.53 µg/mL) | – | – | – | – | – | 12 to 21 (≈ 2.56 to 4.48 µg/mL) | – | – | – | – | – | 12 ± 1.0 (≈ 2.56 µg/mL) | concentration giving sterilization of nonreplicating organisms [14]: 100 µM; IC50 [5]: 27 ± 6 µM; concentration with bactericidal activity (defined as 3 log kill) [15]: 27.5 μM; IC50 [16]: 8.1 ± 1.6 µM; MIC Wild type [6]: 20 ± 23 µM (≈ 4.27 µg/mL) |
| CCCCNC(=S)Nc1nc2ccccc2o1 [Molecule 12, 1-(benzo[d]oxazol-2-yl)-3-butylthiourea] | 11 | 218 | > 20 | > 20 | 12.7 | > 20 | 21 ± 19 | 23 to 32 (≈ 5.73 to 7.98 µg/mL) | 80.1 | 0.002 | 0.002 | > 20 | > 20 | 23 to 32 (≈ 5.73 to 7.98 µg/mL) | 3.4E-05 | 3.2E-05 | 2.7E-05 | 3.0E-05 | 4.9 | 32 ± 11 (≈ 7.98 µg/mL) | MIC Wild type [6]: 23 ± 9.0 µM (≈ 5.73 µg/mL); IC50 [17]: > 200 µM; Papp B→A at 2 h, 10 µM [12]: 5.8 ×10⁻⁶ cm/s; efflux ratio at 2 h, 10 µM [12]: 1.2; IC50 [13]: > 20 µM |
| CCCNC(=S)Nc1nc2c(Cl)cccc2s1 [Molecule 31, 1-(4-chlorobenzo[d]thiazol-2-yl)-3-propyl thiourea] | – | – | – | – | – | – | > 100 | > 100 | – | – | – | – | – | 14 (≈ 4 µg/mL) | – | – | – | – | – | 14 ± 2.0 (≈ 4 µg/mL) | IC50 [16]: > 100 µM; IC50 [18]: 11 ± 2.2 µM |
| CCCCNC(=S)Nc1nccs1 [Molecule 14, 1-butyl-3-(thiazol-2-yl)thiourea] | 26 | 89 | > 20 | > 20 | 13.5 | > 20 | 75 ± 26 | 34 (≈ 7.32 µg/mL) | 83.8 | 0.01 | 0.0098 | > 20 | 13.2 | 41 (≈ 8.83 µg/mL) | 2.6E-04 | 1.5E-04 | 2.3E-04 | 1.6E-04 | 22 | 41 ± 0.1 (≈ 8.83 µg/mL) | MIC Wild type [6]: 34 ± 3.0 µM (≈ 7.32 µg/mL); IC50 [17]: > 200 µM; recovery ([11]; Caco-2, 1 h): 72%; recovery ([11]; Caco-2, 2 h): 65%; Papp B→A at 2 h, 10 µM [12]: 18 ×10⁻⁶ cm/s; efflux ratio at 2 h, 10 µM [12]: 0.81; recovery at 1 h, 10 μM ([12]; Caco-2, recovery): 57%; recovery at 2 h, 10 μM ([12]; Caco-2, recovery): 59%; IC50 [13]: > 20 µM |
